From patent US5639726A, “Peptide mediated enhancement of thrombolysis methods and compositions” (The Regents of the University of Michigan, priority 1994, dated 1997)
Entries after “also recorded” stand apart in the source; their conditions may differ. Ends that are not written are not given here.

Experiments:
platelet-rich clots = assay: In vitro clot lysis assay, platelet-rich clots; format: biochemical, human
Procedure: Blood samples were collected by peripheral venipuncture from normal subjects into acid-citrate-dextrose anticoagulant (0.8% w/v citric acid, 2.2% trisodium citrate, 2.45% dextrose) at a ratio of 6 volumes of blood to 1 volume of anticoagulant. Donors had not consumed aspirin for at least 7 days prior to phlebotomy. Washed platelets were prepared by repeated centrifugation as previously described (Fay et al., 1994), then resuspended in Tyrode's buffer (137 mM NACl, 2.68 mM KCl, 2 mM CaCl2, 1 mM MgCl2, 0.36 mM NaH2 PO4, 11.9 mM NaHCO3, 5 mM HEPES, 0.1% glucose, 0.35% bovine serum albumin, pH 7.35). Clot lysis assays were performed as previously described (Fay et al., 1994). […] The fluorescence of this dilution was measured and % clot lysis was calculated, as previously described (Fay et al., 1994). […] The capacity of P1-P14 peptide to accelerate fibrinolysis in vitro, both in the absence and presence of platelets was also evaluated. […] After 30 min at 37° C., fibrinolysis was initiated by the addition of t-PA (20 nM), and % clot lysis was determined 60 min later. […]

PAI-1 [1] = biological target: T1, PAI-1 (Homo sapiens, UniProt P05121); assay: Kinetics of peptide annealing: residual PAI inhibitory activity assayed with β-trypsin and S-2222; format: biochemical; conditions: for k / kobs / t1/2 of PAI-1 inactivation: 25° C.
T1 construct: made in house; host or cells: E. coli (vector pET3a)
T1 sequence (P05121 24-402): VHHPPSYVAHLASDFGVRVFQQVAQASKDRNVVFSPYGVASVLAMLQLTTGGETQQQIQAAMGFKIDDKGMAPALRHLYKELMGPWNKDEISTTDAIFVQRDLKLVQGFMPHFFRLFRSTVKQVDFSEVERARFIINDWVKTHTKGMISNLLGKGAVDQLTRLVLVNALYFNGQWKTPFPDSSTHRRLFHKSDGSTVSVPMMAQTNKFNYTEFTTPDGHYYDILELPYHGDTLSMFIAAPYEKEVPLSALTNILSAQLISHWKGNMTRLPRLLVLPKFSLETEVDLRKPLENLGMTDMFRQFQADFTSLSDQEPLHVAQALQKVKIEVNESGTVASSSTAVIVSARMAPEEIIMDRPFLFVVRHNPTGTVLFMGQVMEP

PAI-1 [2] = biological target: T1, PAI-1; assay: SDS-PAGE of peptide treated PAI-1 reacted with tPA, uPA or trypsin; format: biochemical; conditions: for formation of SDS stable PAI-1:enzyme complexes after peptide treatment: free PAI-1 preincubated with peptide, then tPA (uPA or trypsin); for conversion of PAI-1 to a substrate (cleaved PAI-1): peptide treated PAI-1 reacted with tPA
Procedure: SDS-polyacrylamide gel electrophoresis (SDS-PAGE) under nonreducing conditions was carried out according to the method of Laemmli (Laemmli, 1970) on 10% gels. Native gel electrophoresis with 5% gels was carried out by omitting SDS and boiling from Laemmli's method. All gels were stained with Coomassie brilliant blue. Gels of PAI-peptide samples were scanned with an LKB Ultroscan XL Laser Densitometer to determine the relative amounts of peptide-annealed and latent PAI.
PAI that had been incubated with peptide was tested for inhibitory and substrate activity by incubating with tPA, uPA or trypsin. SDS-PAGE was then performed on the samples. Free PAI formed a complex band when incubated with any of the enzymes, as well as a faint band indicative of cleaved PAI. Because substoichiometric amounts of enzyme were used there was also a band for free PAI. When PAI was incubated with any of the peptides, the electrophoretic mobility was the same as that of free PAI after denaturing with SDS. When PAI was annealed to any of 8-mers, then allowed to react with tPA, uPA or trypsin, no PAI-enzyme complex band was seen.
SDS-PAGE was performed using a PhastSystem (Pharmacia), Upssala, Sweden, according to manufacturer's instructions. Gels were stained with Coomassie Brilliant Blue.
SDS-PAGE was performed to determine the effect of Thr-Val-Ala-Ser-Ser-Ser-Thr-Ala-Val-Ile-Val-Ser-Ala-Arg (SEQ ID NO: 1) on t-PA:PAI-1 complex formation in the presence and absence of vitronectin.

PAI-1 [3] = biological target: T1, PAI-1; assay: Plasminogen activator inhibitor 1 activity assay (t-PA, Spectrozyme t-PA); format: biochemical; conditions: for PAI-1 T1/2: PAI-1 0.7 μM, peptide 55 μM, 98±18 min without peptide
Procedure: PAI-1 (0.7 μM) was incubated at 37° C. with either P1-P14 peptide or control peptide (55 μM) in 0.1M HEPES, 0.1M NACl, 0.1% PEG (MW 8000), pH 7.4 (assay buffer). At timed intervals 0-110 minutes), 5 μL of the PAI-1:peptide mixture was added to 96 well microtiter plates containing 45 μL of t-PA (0.03 μM in assay buffer), then incubated for 30 minutes at 37° C. Spectrozyme t-PA (final concentration of 150 μM) was added to yield a final reaction volume of 70 μL, and 30 minutes later the absorbance at 405 nm was determined in a THERMO-max (Molecular Devices, Palo Alto, Calif.) microplate reader. 100% PAI-1 activity was defined as activity observed at time zero, while 0% PAI-1 activity was defined as that observed in the absence of PAI-1. A standard t-PA activity curve, derived from absorbance values of varying concentrations of t-PA incubated in the absence of PAI-1, was used to determine PAI-1 activity.

## Ac-TVASSSTAVIVSAR [SEQ ID NO: 1, Thr-Val-Ala-Ser-Ser-Ser-Thr-Ala-Val-Ile-Val-Ser-Ala-Arg]
platelet-rich clots; 70 μM peptide
  tPA induced platelet rich clot lysis: significant enhancement
platelet-rich clots; 2.5×10^8 platelets/mL, t-PA 75 pM, 8±3% without peptide
  lysis of platelet-rich clots at 90 minutes: 41±12%
PAI-1 [1]; 0.9 μM PAI, 64 μM peptide
  half-life of PAI inactivation: 4.3 min
PAI-1 [1]; peptide 1.5 mM
  k: .022 M⁻¹ s⁻¹
  kobs: .12 h⁻¹
  t1/2 of PAI-1 inactivation: 5.8 h
PAI-1 [1]; peptide 3.5 mM
  k: .020 M⁻¹ s⁻¹
  kobs: .25 h⁻¹
  t1/2 of PAI-1 inactivation: 2.7 h
PAI-1 [1]; peptide 5.5 mM
  kobs: .28 h⁻¹
  t1/2 of PAI-1 inactivation: 2.5 h
PAI-1 [1]; peptide 7 mM
  k: .012 M⁻¹ s⁻¹
  kobs: .31 h⁻¹
  t1/2 of PAI-1 inactivation: 2.2 h
PAI-1 [1]; peptide 9 mM
  k: .017 M⁻¹ s⁻¹
  kobs: .54 h⁻¹
  t1/2 of PAI-1 inactivation: 1.3 h
PAI-1 [2]
  formation of SDS stable PAI-1:enzyme complexes after peptide treatment: no t-PA:PAI-1 complex formation was observed
  conversion of PAI-1 to a substrate (cleaved PAI-1): did not convert PAI-1 to a substrate form; also recorded: substrate form of PAI-1 was not generated
PAI-1 [2]; listed as P1-P14 peptide
  formation of SDS stable PAI-1:enzyme complexes after peptide treatment: inhibited complex formation
PAI-1 [2]; high peptide concentration
  PAI forms on SDS-PAGE: almost all of the PAI is in the latent conformation
PAI-1 [2]; low peptide concentration
  PAI forms on SDS-PAGE: a significant substrate band formed along with the dominant latent PAI band
PAI-1 [2]; listed as wt14-mer
  conversion of PAI-1 to a substrate (cleaved PAI-1): did not behave as a substrate
PAI-1 [3]; 37° C.
  PAI-1 T1/2: approximately four
PAI-1 [3]; 37° C., listed as P1-P14 peptide
  PAI-1 T1/2: 4 ± 3 min
PAI-1 [3]; 37° C., peptide 55 μM vs no peptide, listed as P1-P14 peptide
  fold shortening of the PAI-1 T1/2: 24 fold
PAI-1 [3]; similar peptide concentrations (55 μM)
  drop in t1/2, wt14-mer (37° C.) compared to wt8-mer (25° C.): 100 fold
